One experiment concerns HFB (human fibroblast). The experiment in a line: Cell growth after thawing of freeze-preserved cells, MTT assay (Example 1). In kind it is cell-based. To be noted: culture medium plus sugar, in comparison with other cases (FIG. 2). The procedure: (§1) 1. Cells used: Hela (human cervical cancer), OVCAR-3 (human ovarian cancer), HuH-7 (human liver cancer), HaCaT (human skin keratinocyte), HFB (human fibroblast) and NIH3T3 (mouse fibroblast). Saccharides D-allose and the like were added to culture medium, Cell Banker (commercially available preservative solution) and DMSO at concentrations of 25 mM and 50 mM. Monosaccharides such as D-glucose, D-fructose, D-mannose and D-galactose which are present in nature in large quantities and D-allose, D-psicose, D-altrose, allitol, D-talitol and L-sorbose as rare sugars were used. Further, trehalose as disaccharide was used. The cells were preserved for 24 hours by being frozen at −80° C. 2) Cell growth: One day later, the cells were thawed, and 0.25˜2×10^4 cells/well were spread on 96-well plate with 0.1 mL medium. After a prescribed period of time, the cell growth was measured by MTT assay.
In general terms: Tetrazolium dyes change colour on reduction, which living cells bring about.

In experiment [1] the test system is HFB cells and NIH3T3 cells. The experiment in a line: Proliferation ability after freeze-preservation with Cell Banker containing rare sugar (Example 1). The experiment is classed as cell-based, human, mouse. The following applies: sugar added to Cell Banker, versus Cell Banker alone (FIG. 3). The procedure: as §1, with “assay. 3) Then, the rare sugar was added to Cell Banker which was widely used for freeze-preservation of cells, and an effect of preservability was comparatively studied.” for “assay.”

The test system of experiment [2] is Hela, OVCAR-3, HaCaT, HFB and NIH3T3 cells. The experiment in a line: Survival rate of cells after freeze-preservation at high sugar concentration, trypan blue (Example 2). The experiment is classed as cell-based, human, mouse. To be noted: sugar-containing medium in comparison with medium alone (FIG. 7). The procedure: 1. Cells used: Hela (human cervical cancer), OVCAR-3 (human ovarian cancer), HaCaT (human skin keratinocyte), HFB (human fibroblast) and NIH3T3 (mouse fibroblast). Saccharides D-allose and the like were added to culture medium, Cell Banker (commercially available preservative solution) and DMSO at concentrations of 0.2, 0.4, 0.6, 0.8 and 1M. Monosaccharides such as D-glucose, D-fructose, D-mannose and D-galactose which are present in nature in large quantities and D-allose, D-altrose, D-psicose, L-psicose, D-sorbose, L-sorbose, D-tagatose, L-tagatose and L-fructose as rare sugars were used. Further, trehalose as disaccharide was used. The cells frozen with D-allose were freeze-preserved at −80° C. and in liquid nitrogen for 24 hours, 1 week and 4 weeks. 1) Survival rate of cells: The cells were thawed, and the survival rate was estimated by a trypan blue dying method.

For experiment [3] the test system is unchanged. Description: Cell growth after thawing of cells freeze-preserved at optimum concentrations, MTT assay (Example 2). In kind it is cell-based, human, mouse. To be noted: freeze-preserved 24 hours at optimum concentration, versus other cases (FIG. 8). Here is the method:
1. Cells used: Hela (human cervical cancer), OVCAR-3 (human ovarian cancer), HaCaT (human skin keratinocyte), HFB (human fibroblast) and NIH3T3 (mouse fibroblast). Saccharides D-allose and the like were added to culture medium, Cell Banker (commercially available preservative solution) and DMSO at concentrations of 0.2, 0.4, 0.6, 0.8 and 1M. Monosaccharides such as D-glucose, D-fructose, D-mannose and D-galactose which are present in nature in large quantities and D-allose, D-altrose, D-psicose, L-psicose, D-sorbose, L-sorbose, D-tagatose, L-tagatose and L-fructose as rare sugars were used. Further, trehalose as disaccharide was used. The cells frozen with D-allose were freeze-preserved at −80° C. and in liquid nitrogen for 24 hours, 1 week and 4 weeks. 2) Cell growth: The cells were freeze-preserved with D-allose and trehalose at optimum concentrations for 24 hours, thawed, and spread on a 96-well plate such that the concentration was 0.5-1×10^4 cells/well/0.1 ml. After a prescribed period of time, the cell growth was measured by MTT assay.

Turning to `OC[C@H]1O[C@H](O[C@H]2O[C@H](CO)[C@@H](O)[C@H](O)[C@H]2O)[C@H](O)[C@@H](O)[C@@H]1O` [trehalose, reference compound], the “growth rate of cells after thawing” value (in the experiment on HFB (human fibroblast); in experiment [3]) was “nearly the same effect was obtained” in each case. The “proliferation ability after freeze-preservation” value in experiment [1] was “nearly the same effect was obtained”. Besides, the “number of cells survived (trypan blue dying)” value in experiment [2] is listed as “the same”.

Source of the values: US9237744B2, “Preservative solution for cells, tissues and organs containing rare sugar and preservative method thereof” (NATIONAL UNIVERSITY CORPORATION KAGAWA UNIVERSITY, priority 2004, dated 2016).
